Results published in patent US20230346995A1, “USE OF ELECTRIC CURRENT OR FIELD TO MANAGE RISK OF INFECTION BY ANTIMICROBIAL-RESISTANT MICROORGANISMS” (THE TRUSTEES OF INDIANA UNIVERSITY, priority 2020, published 2023).

Experiments:
Format in all cases: cell-based
[1] = system: ketoconazole-resistant Candida albicans ATCC 64124; assay: Efflux pump activity by Nile Red accumulation assay; conditions: within 30 min to 3 h of treatment; flow cytometry
Method: Three technical replicates were assayed for each experimental group; six biological replicates.

[2] = system: ketoconazole-resistant Candida albicans ATCC 64124; assay: Cell membrane potential changes, DiBAC4(3)/PI staining, flow cytometry; conditions: in words; flow cytometry and microscopy
Method: Cell membrane potential changes were assessed by DiBAC4(3) staining. Candida albicans cells were cultured in liquid media (YPD broth), with or without dressings or ketoconazole. At respective time intervals, an aliquot of cells (1×10^8) was taken and washed with 1 ml 1X PBS followed by treatment with either 200 μl 10 μM DiBAC4(3) [Bis-(1,3-dibutylbarbituric acid) trimethine oxonol] (Anaspec) [for DiBAC4(3) single stained controls] or 10 μM propidium iodide (Sigma Aldrich) [for PI single stained controls] or a combination of both stains. Heat-killed cells (1×10^8; treated at 100° C. for 30 min) and cells treated with Amphotericin B (3 μg/ml) (Sigma
Aldrich) for 6 h were used as controls for dual stain positive and DiBAC4(3) only positive cells, respectively.
Post staining, cells were washed with 1XPBS followed by flow cytometry (with FL1-FITC for DiBAC4(3) and FL2-PE filter for PI) (10,000 events per sample) to assess dual stain positive cells in control and test samples. For flow cytometry, control and treated cells stained only with single fluorescent stains were also run separately to check individual staining patterns. Flow cytometry data were analyzed using FlowJo software and graphically represented. Scatter plots with ratio of fluorescence intensities through FL1-FITC filter and FL2-PE filter were plotted to understand cell membrane depolarization mechanism in treated cells. […]

[3] = system: ketoconazole-resistant Candida albicans ATCC 64124; assay: Ultrastructure analysis (TEM) for cell wall thickness; conditions: after 24 h; compared to control cells
Method: Ultrastructure analysis was performed as follows. After 24 h of respective treatments in YPD broth, C. albicans cells were initially fixed overnight with 500 μl 3% glutaraldehyde/0.1 M phosphate buffer; the fixative was changed to same fixative with 0.15% tannic acid for one hour. After three rinses in buffer, the specimens were post-fixed with 1% osmium tetroxide/0.1 M phosphate buffer for one hour and then rinsed multiple times with distilled water, before en bloc staining with 1% uranyl acetate in distilled water for one hour. After multiple rinses in distilled water, standard dehydration followed through a range of 70-100% ethanol, then infiltration with acetone, to 50:50 acetone and embedding resin for 48 hours. Specimens were then embedded with 100% resin (Embed 812, Electron Microscopy Sciences, Hatfield, PA) and polymerized overnight. Sections were cut, 80-85 nm and placed on copper mesh grids and viewed on Transmission Electron Microscope (TEM) (ThermoFisher, Tecnai Spirit, Hillsoboro OR) and images taken with CCD camera (Advanced Microscopy Techniques Danvers MA). Analysis of cell wall thickness was done with TEM images using ImageJ software.

[4] = system: ketoconazole-resistant Candida albicans ATCC 64124; assay: In vitro yeast to hyphae transition assay; conditions: after 2 h incubation in hyphae-inducing medium
Method: Transition of C. albicans from yeast form to hyphal form was studied with hyphae inducing conditions (YPD broth with 10% fetal bovine serum and incubation at 37° C., static condition). Cells were cultured in 5 ml hyphae-inducing medium, with or without dressings or ketoconazole. An aliquot of cells (1 ml) was taken from all treatment groups at 6 h and 24 h. Hyphal induction and elongation was monitored microscopically (63X) and imaged at 6 h and 24 h. For hyphal length measurements, aliquots were taken after 2 h in hyphae-inducing medium and images were captured at 20X magnification. Hyphal lengths were measured from these images using Accuview software (50 measurements per experimental group, six biological replicates).

[5] = system: ketoconazole-resistant Candida albicans ATCC 64124; assay: Metabolic state by FUN1 staining; conditions: in words
Method: (§1) An agar lawn assay assessed fungicidal activity. Dressings (2′×2′) were moistened with sterile YPD broth and placed in empty Petri plates with the conducting side of the dressing facing up. One milliliter of log phase C. albicans cells (1×10^8 cells) was thoroughly mixed in sterile molten YPD agar (9 ml) and poured evenly in plates with dressings. […] Plate images were captured and the area of growth inhibition in these plates was calculated with ImageJ software. Metabolic state was assessed by FUN1 staining. […] Post treatments with electroceutical dressings, an aliquot of yeast cells (1×10^8) was taken and washed with 1 ml of 1X PBS followed by treatment with 100 μl FUN®1 (1:1000; freshly diluted in 1X PBS) for 40 min in dark condition. Cells were then washed once with 1 ml of 1X PBS followed by counter staining with 100 μl Calcofluor White (25 μg/ml) for 10 min in dark conditions. Post counter staining cells were again washed with 1 ml 1X PBS, an aliquot of cells was trapped between a cover glass and glass slide and observed at 63X. Images captured at this magnification were analyzed using ZEN blue software to calculate the ratio of red and green fluorescence intensities for two regions of interest (ROI) per image (10 ROIs per group per technical replicate). Three technical replicates were assayed for each experimental group; six biological replicates.

[6] = system: ketoconazole-resistant Candida albicans ATCC 64124; assay: Agar lawn assay with embedded dressings; conditions: in words
Method: as §1

[7] = system: ketoconazole-resistant Candida albicans ATCC 64124; assay: Semi-quantitative analysis of cell wall carbohydrates chitin, beta glucan, mannan; conditions: 24 h treatment
Method: Semi-quantitative analysis was performed for cell wall carbohydrates chitin, beta glucan, and mannan. After 24 h treatment, with dressings alone or in combination with ketoconazole, 1 ml yeast cells were washed once with 1 ml 1X PBS followed by chitin staining with Calcofluor White (Sigma Aldrich) (25 μg/ml) for 10 min; beta glucan staining with Aniline Blue (Anaspec) (0.05%) for 15 min; mannan staining with Concanavalin A-Texas Red conjugate (Life Technologies) (25 μg/ml) for 40 min. All stainings were performed under dark condition. Post-staining, cells were washed once with 1 ml 1X PBS and observed under 63X magnification. Microscopic images were used for measuring fluorescence intensities using ZEN blue software.

[8] = system: ketoconazole-resistant Candida albicans ATCC 64124; assay: Planktonic growth, absorbance at 600 nm; conditions: YPD broth; ketoconazole 100 μg/ml; versus control
Method: ATCC strain 64124 was maintained at 4° C. on yeast extract peptone dextrose (YPD) (BD™ Difco™) agar plates. Planktonic yeast cultures (seed inoculums) were initiated in 5 ml of YPD broth (BD™ Difco™) from a single colony of the yeast strain. Cells were incubated at 28° C., under shaker conditions (200 rpm) for 24 h, followed by initiation of master inoculums for respective experiments in 5 ml YPD broth (OD600nm ˜0.15). Yeast cells were incubated at 27° C. for all assays, except for hyphal transition experiments. For all assays, ketoconazole (Sigma Aldrich) was used at a final concentration of 100 μg/ml (dissolved in 100% methanol, stored at −20° C.).
The FDA-approved wireless electroceutical dressing (WED) Procellera (Ag—Zn dressing) (Vomaris Innovations Inc.) was the source of electric fields for treating C. albicans cells. This dressing has alternating circular regions of silver and zinc dots placed in proximity of 1 mm to each other generating electric fields in the range of 0.6-0.9 V (Banerjee et al., 2014; Banerjee et al., 2015). […] The effect of wound dressings on planktonic growth was assessed by culturing C. albicans in sterile 15 ml round bottom polypropylene tubes with 5 ml YPD broth in the presence of dressings. […] Post incubation for respective time intervals, 1 ml aliquots were taken from all groups and optical density (absorbance) was measured on a spectrophotometer at 600 nm.

## CC(=O)N1CCN(c2ccc(OCC3COC(Cn4ccnc4)(c4ccc(Cl)cc4Cl)O3)cc2)CC1 (centres unmarked) [ketoconazole]
[1]
  Nile red accumulation / efflux pump activity: increased efflux pump activity
[2]
  effect on cell membrane depolarization / damage: did not have any acute or prolonged effect
[3]
  change in cell wall thickness: thick cell walls
[4]
  hyphal length measurements: pseudohyphae formed
[5]
  FUN1 staining outcome (metabolic state, plasma membrane integrity): distinct intravacuolar structures
[6]
  yeast growth in agar lawn assay: reduction in growth
[7]
  chitin content (Calcofluor white staining): increased chitin staining profile
[8]
  planktonic growth measured by absorbance at 600 nm: almost equivalent
